Assay results published in publication PMC6409085, “Three odorant-binding proteins are involved in the behavioral response of Sogatella furcifera to rice plant volatiles” (PeerJ, 2019).
Values joined by “and” are separate entries in the source; they are usually repeats but may differ in a detail not shown here. Equal values may be shown once.

Columns and labels:
[1] = target: SfurOBP11 (Sogatella furcifera, UniProt V5T6E3); assay: biochemical; type: binding
In short: (§1)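 Protein 2.0 µM + 1-NPN 2.0 µM, 50 mM Tris-HCl pH 7.4; competitor odorants 2, 4 … 20 µM final; read 2 min post-addition, ex 337/em 390–490 nm; n=3. K1-NPN from 1-NPN titration/Scatchard; Ki from IC50 corrected for free 1-NPN.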

[2] = target: SfurOBP2 (Sogatella furcifera, UniProt V5T759); assay: biochemical; type: binding
Chain of SfurOBP2 (V5T759 entry or part of it): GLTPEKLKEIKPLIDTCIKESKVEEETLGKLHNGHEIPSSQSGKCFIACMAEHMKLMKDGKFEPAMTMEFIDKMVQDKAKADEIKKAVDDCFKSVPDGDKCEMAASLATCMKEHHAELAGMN
In short: as §1

[3] = target: SfurOBP1 (Sogatella furcifera, UniProt V5T8N5); assay: biochemical; type: binding; conditions: for Fluorescence competitive binding assay, fluorescence intensity: OBP1, three replicate columns
Chain of SfurOBP1 (V5T8N5 entry or part of it): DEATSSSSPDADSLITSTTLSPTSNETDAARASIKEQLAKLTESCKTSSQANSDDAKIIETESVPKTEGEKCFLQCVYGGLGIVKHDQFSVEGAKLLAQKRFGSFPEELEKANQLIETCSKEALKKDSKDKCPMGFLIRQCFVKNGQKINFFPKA
In short: as §1

[4] = target: SfurOBP3 (Sogatella furcifera, UniProt V5T818); assay: biochemical; type: binding; conditions: for Fluorescence competitive binding assay, fluorescence intensity: OBP3, three replicate columns
Chain of SfurOBP3 (V5T818 entry or part of it): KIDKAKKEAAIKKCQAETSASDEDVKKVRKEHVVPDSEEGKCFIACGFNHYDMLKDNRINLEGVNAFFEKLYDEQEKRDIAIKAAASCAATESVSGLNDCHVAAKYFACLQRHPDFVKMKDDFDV
In short: as §1

[5] = tested on: S. furcifera adults; assay: Y-tube olfactometer behavioral trials; type: in vivo, Sogatella furcifera; conditions: odorant 50 µL/L vs hexane
In short: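 Single S. furcifera adults (2 days post-emergence, starved 0.5 h) chose between odorant (100 µL of 50 µL/L on filter paper) and hexane control in a glass Y-tube, charcoal-filtered humidified air 300 mL/min per arm, 25 ± 1 °C, 50% RH. Choice scored if insect passed half an arm and stayed >1 min within 10 min; 45 insects per compound, chi-squared test.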

Chain of SfurOBP11 (V5T6E3 entry or part of it): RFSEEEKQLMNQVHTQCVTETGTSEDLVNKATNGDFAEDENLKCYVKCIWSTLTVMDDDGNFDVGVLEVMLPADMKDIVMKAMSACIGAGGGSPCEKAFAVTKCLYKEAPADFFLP

For `CCCCCCCC=O` [octanal], the IC50 ([1]; SfurOBP11, protein and 1-NPN both 2.0 µM, competitor 2-20 µM, read-out: IC50) was > 20 µM, the “Fluorescence intensity, fluorescence competitive binding assay, OBP11” value (“Fluorescence intensity … OBP11” for short) ([1]; ligand concentration 2, replicate 1) was 24279 and the “Fluorescence intensity … OBP11” value ([1]; ligand concentration 2, replicate 2) was 24939. For the same compound, the “Fluorescence intensity … OBP11” value ([1]; ligand concentration 2, replicate 3) was 29122, the “Fluorescence intensity … OBP11” value ([1]; ligand concentration 4, replicate 1) was 25640 and the “Fluorescence intensity … OBP11” value ([1]; ligand concentration 4, replicate 2) was 28958. The “Fluorescence intensity … OBP11” value ([1]; ligand concentration 4, replicate 3) was 26788, the “Fluorescence intensity … OBP11” value ([1]; ligand concentration 6, replicate 1) was 25301 and the “Fluorescence intensity … OBP11” value ([1]; ligand concentration 6, replicate 2) was 29174. For the same compound, the “Fluorescence intensity … OBP11” value ([1]; ligand concentration 6, replicate 3) was 26969, the “Fluorescence intensity … OBP11” value ([1]; ligand concentration 8, replicate 1) was 29061 and the “Fluorescence intensity … OBP11” value ([1]; ligand concentration 8, replicate 2) was 28222. For the same compound, the “Fluorescence intensity … OBP11” value ([1]; ligand concentration 8, replicate 3) was 29900, the “Fluorescence intensity … OBP11” value ([1]; ligand concentration 10, replicate 1) was 27603 and the “Fluorescence intensity … OBP11” value ([1]; ligand concentration 10, replicate 2) was 27689. The “Fluorescence intensity … OBP11” value ([1]; ligand concentration 10, replicate 3) was 19569, the “Fluorescence intensity … OBP11” value ([1]; ligand concentration 12, replicate 1) was 25318 and the “Fluorescence intensity … OBP11” value ([1]; ligand concentration 12, replicate 2) was 27390. For the same compound, the “Fluorescence intensity … OBP11” value ([1]; ligand concentration 12, replicate 3) was 28182, the “Fluorescence intensity … OBP11” value ([1]; ligand concentration 14, replicate 1) was 26354 and the “Fluorescence intensity … OBP11” value ([1]; ligand concentration 14, replicate 2) was 26978. The “Fluorescence intensity … OBP11” value ([1]; ligand concentration 14, replicate 3) was 26309, the “Fluorescence intensity … OBP11” value ([1]; ligand concentration 16, replicate 1) was 23481 and the “Fluorescence intensity … OBP11” value ([1]; ligand concentration 16, replicate 2) was 24311. For the same compound, the “Fluorescence intensity … OBP11” value ([1]; ligand concentration 16, replicate 3) was 22273, the “Fluorescence intensity … OBP11” value ([1]; ligand concentration 18, replicate 1) was 28836 and the “Fluorescence intensity … OBP11” value ([1]; ligand concentration 18, replicate 2) was 32227. The “Fluorescence intensity … OBP11” value ([1]; ligand concentration 18, replicate 3) was 28560, the “Fluorescence intensity … OBP11” value ([1]; ligand concentration 20, replicate 1) was 27143 and the “Fluorescence intensity … OBP11” value ([1]; ligand concentration 20, replicate 2) was 27661. For the same compound, the “Fluorescence intensity … OBP11” value ([1]; ligand concentration 20, replicate 3) was 26182, the IC50 ([2]; SfurOBP2, protein and 1-NPN both 2.0 µM, competitor 2-20 µM, read-out: IC50) was > 20 µM and the “Fluorescence competitive binding assay, OBP2 (raw fluorescence reading)” value ([2]; ligand concentration 2 (unit not given), replicate column 1 of 3) was 19179. The “Fluorescence competitive binding assay, OBP2 (raw fluorescence reading)” value ([2]; ligand concentration 2 (unit not given), replicate column 2 of 3) was 16653, the “Fluorescence competitive binding assay, OBP2 (raw fluorescence reading)” value ([2]; ligand concentration 2 (unit not given), replicate column 3 of 3) was 19027 and the “Fluorescence competitive binding assay, OBP2 (raw fluorescence reading)” value ([2]; ligand concentration 4 (unit not given), replicate column 1 of 3) was 18170. The “Fluorescence competitive binding assay, OBP2 (raw fluorescence reading)” value ([2]; ligand concentration 4 (unit not given), replicate column 2 of 3) was 19771, the “Fluorescence competitive binding assay, OBP2 (raw fluorescence reading)” value ([2]; ligand concentration 4 (unit not given), replicate column 3 of 3) was 20766 and the “Fluorescence competitive binding assay, OBP2 (raw fluorescence reading)” value ([2]; ligand concentration 6 (unit not given), replicate column 1 of 3) was 19862. The “Fluorescence competitive binding assay, OBP2 (raw fluorescence reading)” value ([2]; ligand concentration 6 (unit not given), replicate column 2 of 3) was 19512, the “Fluorescence competitive binding assay, OBP2 (raw fluorescence reading)” value ([2]; ligand concentration 6 (unit not given), replicate column 3 of 3) was 20651 and the “Fluorescence competitive binding assay, OBP2 (raw fluorescence reading)” value ([2]; ligand concentration 8 (unit not given), replicate column 1 of 3) was 15792. The “Fluorescence competitive binding assay, OBP2 (raw fluorescence reading)” value ([2]; ligand concentration 8 (unit not given), replicate column 2 of 3) was 18755, the “Fluorescence competitive binding assay, OBP2 (raw fluorescence reading)” value ([2]; ligand concentration 8 (unit not given), replicate column 3 of 3) was 20463 and the “Fluorescence competitive binding assay, OBP2 (raw fluorescence reading)” value ([2]; ligand concentration 10 (unit not given), replicate column 1 of 3) was 17421. For the same compound, the “Fluorescence competitive binding assay, OBP2 (raw fluorescence reading)” value ([2]; ligand concentration 10 (unit not given), replicate column 2 of 3) was 18400, the “Fluorescence competitive binding assay, OBP2 (raw fluorescence reading)” value ([2]; ligand concentration 10 (unit not given), replicate column 3 of 3) was 18628 and the “Fluorescence competitive binding assay, OBP2 (raw fluorescence reading)” value ([2]; ligand concentration 12 (unit not given), replicate column 1 of 3) was 16986. For the same compound, the “Fluorescence competitive binding assay, OBP2 (raw fluorescence reading)” value ([2]; ligand concentration 12 (unit not given), replicate column 2 of 3) was 26722, the “Fluorescence competitive binding assay, OBP2 (raw fluorescence reading)” value ([2]; ligand concentration 12 (unit not given), replicate column 3 of 3) was 18513 and the “Fluorescence competitive binding assay, OBP2 (raw fluorescence reading)” value ([2]; ligand concentration 14 (unit not given), replicate column 1 of 3) was 17500. For the same compound, the “Fluorescence competitive binding assay, OBP2 (raw fluorescence reading)” value ([2]; ligand concentration 14 (unit not given), replicate column 2 of 3) was 18527, the “Fluorescence competitive binding assay, OBP2 (raw fluorescence reading)” value ([2]; ligand concentration 14 (unit not given), replicate column 3 of 3) was 15051 and the “Fluorescence competitive binding assay, OBP2 (raw fluorescence reading)” value ([2]; ligand concentration 16 (unit not given), replicate column 1 of 3) was 15983. For the same compound, the “Fluorescence competitive binding assay, OBP2 (raw fluorescence reading)” value ([2]; ligand concentration 16 (unit not given), replicate column 2 of 3) was 17600, the “Fluorescence competitive binding assay, OBP2 (raw fluorescence reading)” value ([2]; ligand concentration 16 (unit not given), replicate column 3 of 3) was 16529 and the “Fluorescence competitive binding assay, OBP2 (raw fluorescence reading)” value ([2]; ligand concentration 18 (unit not given), replicate column 1 of 3) was 18709. The “Fluorescence competitive binding assay, OBP2 (raw fluorescence reading)” value ([2]; ligand concentration 18 (unit not given), replicate column 2 of 3) was 20674, the “Fluorescence competitive binding assay, OBP2 (raw fluorescence reading)” value ([2]; ligand concentration 18 (unit not given), replicate column 3 of 3) was 18464 and the “Fluorescence competitive binding assay, OBP2 (raw fluorescence reading)” value ([2]; ligand concentration 20 (unit not given), replicate column 1 of 3) was 19401. The “Fluorescence competitive binding assay, OBP2 (raw fluorescence reading)” value ([2]; ligand concentration 20 (unit not given), replicate column 2 of 3) was 17294, the “Fluorescence competitive binding assay, OBP2 (raw fluorescence reading)” value ([2]; ligand concentration 20 (unit not given), replicate column 3 of 3) was 16214 and the “Fluorescence competitive binding assay, fluorescence intensity” value ([3]; ligand concentration 2 (μM)) was 7113 and 7279 and 7196. For the same compound, the “Fluorescence competitive binding assay, fluorescence intensity” value ([3]; ligand concentration 4 (μM)) was 8035 and 6567 and 6323, the “Fluorescence competitive binding assay, fluorescence intensity” value ([3]; ligand concentration 6 (μM)) was 7198 and 8786 and 7995 and the “Fluorescence competitive binding assay, fluorescence intensity” value ([3]; ligand concentration 8 (μM)) was 8545 and 7731 and 8071. The “Fluorescence competitive binding assay, fluorescence intensity” value ([3]; ligand concentration 10 (μM)) was 6799 and 7181 and 8487, the “Fluorescence competitive binding assay, fluorescence intensity” value ([3]; ligand concentration 12 (μM)) was 7177 and 8788 and 7408 and the “Fluorescence competitive binding assay, fluorescence intensity” value ([3]; ligand concentration 14 (μM)) was 8520 and 7543 and 7998. For the same compound, the “Fluorescence competitive binding assay, fluorescence intensity” value ([3]; ligand concentration 16 (μM)) was 7196 and 9418 and 8283, the “Fluorescence competitive binding assay, fluorescence intensity” value ([3]; ligand concentration 18 (μM)) was 10247 and 9192 and 8904 and the “Fluorescence competitive binding assay, fluorescence intensity” value ([3]; ligand concentration 20 (μM)) was 10042 and 9521 and 8702. For the same compound, the IC50 ([3]; SfurOBP1, protein and 1-NPN both 2.0 µM, competitor 2-20 µM, read-out: IC50) was > 20 µM, the “Fluorescence competitive binding assay, fluorescence intensity” value ([4]; ligand concentration 2) was 68575 and 67242 and 67984 and the “Fluorescence competitive binding assay, fluorescence intensity” value ([4]; ligand concentration 4) was 64299 and 63882 and 65677. The “Fluorescence competitive binding assay, fluorescence intensity” value ([4]; ligand concentration 6) was 63214 and 64264 and 71883, the “Fluorescence competitive binding assay, fluorescence intensity” value ([4]; ligand concentration 8) was 56987 and 54777 and 62435 and the “Fluorescence competitive binding assay, fluorescence intensity” value ([4]; ligand concentration 10) was 56513 and 56201 and 65155. For the same compound, the “Fluorescence competitive binding assay, fluorescence intensity” value ([4]; ligand concentration 12) was 55112 and 58995 and 53063, the “Fluorescence competitive binding assay, fluorescence intensity” value ([4]; ligand concentration 14) was 51702 and 52973 and 56636 and the “Fluorescence competitive binding assay, fluorescence intensity” value ([4]; ligand concentration 16) was 47206 and 51931 and 50397. The “Fluorescence competitive binding assay, fluorescence intensity” value ([4]; ligand concentration 18) was 54350 and 59148 and 62323, the “Fluorescence competitive binding assay, fluorescence intensity” value ([4]; ligand concentration 20) was 48786 and 51913 and 45060 and the IC50 ([4]; SfurOBP3, protein and 1-NPN both 2.0 µM, competitor 2-20 µM, read-out: IC50) was > 20 µM. The “behavioral response of S. furcifera (in words)” value [5] was “significantly repelled”, the “number of insects choosing hexane arm” value ([5]; adults) was 15 and the “number of insects choosing volatilies arm” value ([5]; adults) was 8. For the same compound, the “number of insects failed (no choice)” value ([5]; adults) was 17.
